The values that follow come from patent US9499492B2, “4-(ortho)-fluorophenyl-5-fluoropyrimidin-2-yl amines containing a sulfoximine group” (BAYER PHARMA AKTIENGESELLSCHAFT, priority 2012, dated 2016).

Common to all, as to type: biochemical
Experiment [1] has as its target CDK2/CycE (Homo sapiens (Human), UniProt P24941). The experiment can be described thus: CDK2/CycE kinase assay (Method 2). The conditions noted are these: 10 μM ATP.
Experiment [2] addresses human carbonic anhydrase-1 (Homo sapiens (Human), UniProt P00915). The experiment can be described thus: Carbonic anhydrase assay, carbonic anhydrase-1 (Method 4). The conditions noted are these: read-out: Inhibition of Carbonic anhydrase-1 IC50. The protocol:
(§1) 4. Carbonic Anhydrase Assay
(§2) 2 μL of the test compounds, dissolved in DMSO (100-fold final concentration), in a concentration range of 0.03-10 μmol/L (final), was pipetted as quadruplicates into the wells of a 96-hole microtiter plate. Wells that contained the solvent without test compounds were used as reference values (1. Wells without carbonic anhydrase for correction of the non-enzymatic hydrolysis of the substrate, and 2. Wells with carbonic anhydrase for determining the activity of the non-inhibited enzyme).
(§3) 188 μL of assay buffer (10 mmol/L of Tris/HCl, pH 7.4, 80 mmol/L of NaCl), with or without 3 units/well of carbonic anhydrase-1 [=human carbonic anhydrase-1 (Sigma, #C4396)] in order to determine carbonic anhydrase-1 inhibition or 3 units/well of carbonic anhydrase-2 [=human carbonic anhydrase-2 (Sigma, #C6165)] for measuring carbonic anhydrase-2 inhibition, was pipetted into the wells of the microtiter plate.

Experiment [3] has as its target human carbonic anhydrase-2 (Homo sapiens (Human), UniProt P00918). Nature of the experiment: Carbonic anhydrase assay, carbonic anhydrase-2 (Method 4). The conditions noted are these: read-out: Inhibition of Carbonic anhydrase-2 IC50. The procedure:
as §1
The principle of the assay is based on the hydrolysis of 4-nitrophenyl acetate by carbonic anhydrases (Pocker & Stone, Biochemistry, 1967, 6, 668), with subsequent photometric determination of the dye product 4-nitrophenolate at 400 nm by means of a 96-channel spectral photometer.
as §2, §3

pIC50: −log10 of the molar value.

Sequence of human carbonic anhydrase-1 (P00915 whole entry): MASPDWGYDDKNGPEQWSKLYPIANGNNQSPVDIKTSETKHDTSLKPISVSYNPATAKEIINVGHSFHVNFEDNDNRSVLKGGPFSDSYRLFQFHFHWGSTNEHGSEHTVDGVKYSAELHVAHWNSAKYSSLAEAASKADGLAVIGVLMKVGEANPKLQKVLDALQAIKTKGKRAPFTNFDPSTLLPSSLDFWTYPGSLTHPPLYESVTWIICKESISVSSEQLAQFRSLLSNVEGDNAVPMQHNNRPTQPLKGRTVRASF

Usually pIC50 stands for the IC50 on a negative log10 scale, so that one unit is a factor of ten. Turning to `CS(=O)(Cc1cc(Br)cc(Nc2ncc(F)c(-c3ccc(F)cc3F)n2)c1)=NC#N` (racemic) [Example 18, (rac)-[(3-Bromo-5-{[4-(2,4-difluorophenyl)-5-fluoropyrimidin-2-yl]amino}benzyl)(methyl)oxido-λ^6-sulfanylidene]cyanamide], the values for the pIC50 in experiment [1], in experiment [2] and in experiment [3] were 6.33, less than 5.00 and less than 5.00, respectively.
